The subject of assay [1] is urease. The experiment in a line: Screening of urease inhibition (colorimetric Phenol Red assay, 96 well plates). As to conditions: additive 0.1 w/w, urea 0.2% w/w, urease 0.5 U/ml; for Inhibition: fraction vs negative control, 1 h. In kind it is biochemical. The protocol:
Urease catalyzed ammonia formation leads to a change in pH (alkalization). […] The enzymatic screening assay is described below. The colorimetric assay is conducted in 96 well plates in combination with a microplate spectrophotometer with Phenol Red as pH sensitive indicator.
In brief: the substrate urea, the fragrance raw material and the urease are mixed in the wells and the change in absorption at 560 nm is monitored for 1 h. The resulting absorbance curves are compared to untreated samples (negative controls, without inhibitors) and samples with commercially available NBPT inhibitor (positive control).

Assay [2] relates to urease. The assay can be described thus: Application in cat litter: ammonia formation from artificial cat urine (headspace sampling). As to conditions: litter coated with 0.1% (w/w) active material; artificial cat urine with urea and urease; headspace ammonia over 5 days; negative control = 100. The protocol:
The efficiency of reducing ammonia formation in cat litter was tested with different fragrance raw materials that are shown in the table below (table 3).
In brief, the litter was coated with a final concentration of 0.1% (w/w) of active material respective to the dry litter material. In a glass bottle with a total volume of 5 l, the litter is treated with artificial cat urine that consists of an aqueous salt solution containing urea and urease. The development of ammonia is measured through headspace sampling with an ammonia sensitive detector over a period of 5 days.

SMILES strings stand for the structures.

With `COc1ccccc1O` [GUAIACOL, 2-Methoxyphenol], in the assay with urease [1] (positive hits table), the Inhibition came to 0.718.

For the compound `C/C=C/C(=O)C1C(C)=CCCC1(C)C` (stereo not drawn) [DAMASCONE ALPHA, (E)-1-(2,6,6-trimethyl-1-cyclohex-2-enyl)but-2-en-1-one], the Inhibition in the assay with urease [1] (positive hits table) is given as 0.991. Turning to `CCC/C=C/C=O` [HEXENAL TRANS-2, trans-2-hexenal], the “Relative ammonia formation in %” value in the assay on urease [2] was determined as 32%. Also, in the assay on urease [1] (positive hits table), the Inhibition was found to be 0.961.

In the case of `CC/C=C\CCOC(=O)CC` [HEXENYL […]-3, cis-3-hexenyl propionate], the Inhibition with urease [1] (positive hits table) is given as 0.956.

With `C/C=C/C(=O)C1=C(C)C=CCC1(C)C` [D[…], (E)-1-(2,6,6-trimethyl-1-cyclohexa-1,3-dienyl)but-2-en-1-one], in the assay on urease [1] (positive hits table), the Inhibition stood at 0.985.

Consider `CC/C=C\CC/C=C/CO` [NONADIENOL-2,6, 2,6-nonadien-1-ol], for which the Inhibition with urease [1] (positive hits table) is 0.885. On the same count and under the same terms, the figure for `CC/C=C\CCO` [HEXENOL CIS-3, cis-3-hexenol] is 0.888; for `Cc1ccc2c(c1)OC(=O)C2C` (stereo not drawn) [FURAMINTON/TONKALACTONE ™, dimethyl-3,6-benzo-2(3H)-furanone] it is 0.669. As for `CC(=O)/C(C)=C/C1C(C)=CCCC1(C)C` (stereo not drawn) [METHYL IONONE GAMMA PURE/IFF, methyl ionone gamma], in the assay on urease [1] (positive hits table), the Inhibition came out at 0.942. For `CC/C=C\CCOC(=O)CCC` [HEXENYL BUTYRATE CIS-3, cis-3-hexenyl butyrate], in the assay with urease [2], the “Relative ammonia formation in %” value worked out at 65%. In addition, the Inhibition with urease [1] (positive hits table) came to 0.999. In the case of `CC1=C(O)C(=O)C(C)O1` (stereo not drawn) [FURANEOL, 4-Hydroxy-2,5-dimethyl-3-furanone], the Inhibition in the assay on urease [1] (positive hits table) turned out to be 0.985. Same read-out and setting: the figure for `CCC(=O)/C=C/C1C(C)=CCCC1(C)C` (stereo not drawn) [METHYL IONONE ALPHA/IFF, methyl ionone alpha] is 0.936; for `C=CCc1ccc(O)c(OC)c1` [EUGENOL NAT., 2-Methoxy-4-(prop-2-en-1-yl)phenol] it is 0.908; for `CC(C)=CCC/C(C)=C\CO` [NEROL 900, (2Z)-3,7-dimethylocta-2,6-dien-1-ol] it is 0.758. Still for that read-out and setting: next, `CCOc1cc(C)ccc1O` [2-ethoxy-4-methylphenol]: 0.786; `CC/C=C\CCOC(=O)CCCCC` [HEXENYL CAPROATE CIS-3, cis-3-hexenyl hexanoate]: 0.824. Still for that read-out and setting: next, `CC/C=C\CCOC(=O)C(C)C` [HEXENYL I[…]-3, cis-3-hexenyl isobutyrate]: 0.865; `CC/C=C\CCOC(C)=O` [HEXENYL ACETATE CIS-3, cis-3-hexenyl acetate]: 0.723; `CC(C)=CCC/C(C)=C/CO` [GERANIOL 60 B, 2,6-Octadien-1-ol 3,7-dimethyl]: 0.910. In the case of `CC/C=C\CCOC(C)OCC` (stereo not drawn) [LEAF ACETAL, cis-1-(1-Ethoxyethoxy)-3-hexene], the “Relative ammonia formation in %” value with urease [2] was 81%. Moreover, the Inhibition in the assay with urease [1] (positive hits table) was determined as 0.964. Consider `CCCCNP(N)(N)=S` [NBPT, reference compound], for which the Inhibition in the assay with urease [1] (Table 2) amounted to 1.00. Moreover, the “Δ Absorbance at 1 h (560 nm)” value with urease [1] (PBS pH 7.4, monitored 1 h) was 0.00. As to `CC/C=C\CCOC(=O)c1ccccc1O` [HEXENYL […]-3, cis-3-hexenyl salicylate], the “Relative ammonia formation in %” value with urease [2] is 65%. In the assay on urease [1] (positive hits table), the Inhibition stood at 0.989. As to `CC/C=C\CCOC(=O)CC(C)C` [HEXENYL I[…]-3, cis-3-hexenyl isovalerate], in the assay with urease [1] (positive hits table), the Inhibition was 0.724. On the same count and under the same terms, next, `OC/C=C/c1ccccc1` [CINNAMIC ALCOHOL, (2E)-3-phenylprop-2-en-1-ol]: 0.931; `CCC/C=C/CO` [HEXENOL TRANS-2, trans-2-hexenol]: 0.912.

The record behind these values is patent US20250295826A1, “[…] UREASE INHIBITORS” (Symrise AG, priority 2022, published 2025).
